Laboratory results published in ChEMBL document CHEMBL3611972, “Leishmanicidal, antiproteolytic, and mutagenic evaluation of alkyltriazoles and alkylphosphocholines” (Eur J Med Chem, 2015).
pIC50: −log10 of the molar value.

Key:
[1] = Cytotoxicity against mouse peritoneal macrophages assessed as reduction in cell viability incubated for 72 hrs by MTT assay; format: cell-based, Peritoneal macrophage cell
[2] = Selectivity index, ratio of CC50 for mouse peritoneal macrophages to IC50 for Leishmania amazonensis MHOM/BR/71973/M2269 amastigotes infected in mouse peritoneal macrophages; format: functional
[3] = Inhibition of Leishmania mexicana cysteine protease r-CPB2.8 using Z-FR-AMC fluorogenic substrate by spectrofluorometry
Leishmania amazonensis [4] = assay: Leishmanicidal activity against Leishmania amazonensis MHOM/BR/71973/M2269 amastigotes infected in mouse peritoneal macrophages assessed as reduction in surviving parasites incubated for 72 hrs by Giemsa staining based optical light microscopy; format: functional, organism-based; conditions: MHOM/BR/71973/M2269, 72 h
Leishmania amazonensis [5] = assay: microbe, parasite or virus in culture; format: functional, organism-based; conditions: MHOM/BR/71973/M2269, 72 h
Description: Leishmanicidal activity against Leishmania amazonensis MHOM/BR/71973/M2269 promastigotes assessed as reduction in surviving parasites incubated for 72 hrs by Neubauer's chamber based cell counting method

Salmonella typhimurium [6] = assay: Mutagenicity in Salmonella typhimurium TA102 assessed as mutagenicity index at 5 ug/plate incubated for 90 mins at 37 degC in presence of liver S9 fractions by Ames test relative to untreated control; format: toxicity, organism-based; conditions: salmonella enterica subsp. enterica serovar typhimurium, s9, 1.5 h
Salmonella typhimurium [7] = assay: Mutagenicity in Salmonella typhimurium TA100 assessed as number of revertants at 5 ug/plate incubated for 90 mins at 37 degC in presence of liver S9 fractions by Ames test relative to untreated control; conditions: salmonella enterica subsp. enterica serovar typhimurium, s9, 1.5 h
Salmonella typhimurium [8] = assay: Mutagenicity in Salmonella typhimurium TA102 assessed as number of revertants at 5 ug/plate incubated for 90 mins at 37 degC in presence of liver S9 fractions by Ames test relative to control; conditions: salmonella enterica subsp. enterica serovar typhimurium, s9, 1.5 h
Salmonella typhimurium [9] = assay: Mutagenicity in Salmonella typhimurium TA98 assessed as mutagenicity index at 10 ug/plate incubated for 90 mins at 37 degC in absence of liver S9 fractions by Ames test relative to untreated control; format: toxicity, organism-based; conditions: salmonella enterica subsp. enterica serovar typhimurium, 1.5 h
Salmonella typhimurium [10] = assay: Mutagenicity in Salmonella typhimurium TA98 assessed as mutagenicity index at 10 ug/plate incubated for 90 mins at 37 degC in absence of liver S9 fractions by Ames test relative to control; format: toxicity, organism-based; conditions: salmonella enterica subsp. enterica serovar typhimurium, 1.5 h

Row | SMILES | pIC50 [3] | pIC50 (Leishmania amazonensis [5]) | Ratio CC50/IC50 [2] | pIC50 (Leishmania amazonensis [4]) | also measured
1 | OCCCc1cn(CCCCCCCCCCCCI)nn1 | 5.91 | 4.72 | 2.79 | 4.63 | CC50 at 72 h [1]: 66.2 µM
2 | Nc1ccc2cc3ccccc3cc2c1 [2-AMINOANTHRACENE] | – | – | – | – | Revertants (Salmonella typhimurium [6]): 2510 revertants/plate; Revertants (Salmonella typhimurium [7]): 1020 revertants/plate; Revertants (Salmonella typhimurium [8]): 2510 revertants/plate
3 | CCOC(=O)c1cn(CCCCCCCCCCCCOS(C)(=O)=O)nn1 | – | 4.12 | – | – | –
4 | CCOC(=O)c1cn(CCCCCCOS(C)(=O)=O)nn1 | – | 3.66 | – | – | –
5 | C[N+](C)(C)CCOP(=O)([O-])OCCCCCCCCCCCCN=[N+]=[N-] | 5.08 | 4.59 | 33.76 | 5.42 | CC50 at 72 h [1]: 129 µM
6 | CC(C)C[C@H](NC(=O)[C@H]1O[C@@H]1C(=O)O)C(=O)NCCCCN=C(N)N [E-64] | 6.90 | – | – | – | –
7 | OCCCc1cn(CCCCCCCCCCCCF)nn1 | 5.65 | 4.43 | 9.83 | 4.82 | CC50 at 72 h [1]: 163 µM
8 | C[N+](C)(C)CCOP(=O)([O-])OCCCCCCCCCN=[N+]=[N-] | – | 3.87 | – | – | –
9 | CCOC(=O)c1cn(CCCCCCCCCCCCI)nn1 | 5.22 | 4.55 | 5.28 | 4.75 | CC50 at 72 h [1]: 93.4 µM
10 | C[C@@H]1[C@H](O)[C@@H](C)/C=C/C=C/C=C/C=C/C=C/C=C/C=C/[C@H](O[C@@H]2O[C@H](C)[C@@H](O)[C@H](N)[C@@H]2O)C[C@@H]2O[C@](O)(C[C@@H](O)C[C@@H](O)[C@H](O)CC[C@@H](O)C[C@@H](O)CC(=O)O[C@H]1C)C[C@H](O)[C@H]2C(=O)O [AMPHOTERICIN B] | – | 5.33 | 4.44 | 5.21 | –
11 | N=C(N)c1ccc(OCCCCCOc2ccc(C(=N)N)cc2)cc1 [PENTAMIDINE] | – | – | 1.69 | 5.18 | –
12 | Nc1ccc([N+](=O)[O-])cc1N | – | – | – | – | Activity_index (Salmonella typhimurium [9]): 1350; Activity_index (Salmonella typhimurium [10]): 1350
13 | CCOC(=O)c1cn(CCCCCCCCCI)nn1 | – | 4.32 | – | – | –

More lines, main results first:

Row | pIC50 [3] | pIC50 (Leishmania amazonensis [5]) | SMILES | Ratio CC50/IC50 [2] | pIC50 (Leishmania amazonensis [4]) | also measured
14 | – | 4.09 | OCCCc1cn(CCCCCCCCCF)nn1 | – | – | –
15 | – | 3.65 | CS(=O)(=O)OCCCCCCCCCCCCn1cc(CCC(=O)O)nn1 | – | – | –
16 | 5.34 | 5.40 | CS(=O)(=O)OCCCCCCCCCCCCn1cc(CCCOS(C)(=O)=O)nn1 | 2.14 | 4.15 | CC50 at 72 h [1]: 156 µM
17 | – | 4.29 | CS(=O)(=O)OCCCCCCCCCCCCn1cc(CO)nn1 | – | – | –
18 | – | 4.17 | OCCCc1cn(CCCCCCCCCI)nn1 | – | – | –
19 | 5.99 | 4.52 | CC(=O)OCCCc1cn(CCCCCCCCCCCCOS(C)(=O)=O)nn1 | – | 4.25 | CC50 at 72 h [1]: 26.6 µM
20 | – | 4.08 | CS(=O)(=O)OCCCCCCCCCn1cc(CCCO)nn1 | – | – | –
21 | – | 3.64 | CS(=O)(=O)OCCCCCCn1cc(CCCO)nn1 | – | – | –
